Experiments:
[1] = Relative solubility by turbidity in aqueous buffers (pH 1.5, 4.5, 6.8, 7.4); type: physicochemical; settings: for turbidity threshold (L, M, H) 1.4: pH 1.5 (SGF); for turbidity threshold (L, M, H) 4.5: pH 4.5 (SIF); for turbidity threshold (L, M, H) 6.8: pH 6.8 (SIF); for turbidity threshold (L, M, H) 7.4: pH 7.4 (HEPES)
Summary of the method: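 Twofold DMSO dilutions of a 25 mM stock were spiked into SGF (0.5M NaCl, pH 1.5), SIF (0.05M NaH2PO4, pH 4.5 and 6.8) or HEPES buffer (10 mM HEPES, 150 mM NaCl, pH 7.4). Absorbance was read at 490, 535 and 650 nm. The endpoint is the concentration crossing O.D. 0.01, averaged across wavelengths.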

CYP3A4(BFC) = CYP3A4(BFC) (Homo sapiens, UniProt P08684); assay: CYP3A4(BFC) inhibition; type: in vitro ADME; settings: CYP3A4, substrate BFC; read-out: Cyp IC50 3A4(BFC)
Summary of the method: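 Inhibition of human CYP3A4 with the BFC substrate was measured by fluorescence loss of the metabolized product. Compounds at 100 mM in DMSO were diluted 1 μL into 82 μL acetonitrile, then 11 μL into 204 μL cofactor mix with NADPH regeneration solutions, and serially diluted 1:1 to 10 points. Plates were incubated 30 min at 37° C and read at 409 ex/460 em to obtain IC50.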

CYP3A4(BFC), sequence (P08684 whole entry): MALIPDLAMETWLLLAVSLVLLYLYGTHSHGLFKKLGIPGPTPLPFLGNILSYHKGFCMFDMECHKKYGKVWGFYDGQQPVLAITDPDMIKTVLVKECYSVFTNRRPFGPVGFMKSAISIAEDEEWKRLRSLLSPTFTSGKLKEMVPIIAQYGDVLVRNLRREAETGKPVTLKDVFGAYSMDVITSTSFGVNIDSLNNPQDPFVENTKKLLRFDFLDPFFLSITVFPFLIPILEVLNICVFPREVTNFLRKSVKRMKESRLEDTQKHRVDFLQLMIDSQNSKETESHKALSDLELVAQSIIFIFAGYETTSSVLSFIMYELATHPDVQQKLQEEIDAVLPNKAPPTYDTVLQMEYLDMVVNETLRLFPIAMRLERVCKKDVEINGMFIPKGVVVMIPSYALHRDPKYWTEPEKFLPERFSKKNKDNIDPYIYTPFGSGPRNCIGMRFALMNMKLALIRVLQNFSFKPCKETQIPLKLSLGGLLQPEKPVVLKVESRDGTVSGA

CCc1ccc(Nc2ccc(C(=O)c3c[nH]c4ncnc(NC5CC5)c34)c(F)n2)cn1 [Compound P-4125, [4-(cyclopropylamino)-7H-pyrrolo[2,3-d]pyrimidin-5-yl]-[6-[(6-ethyl-3-pyridyl)amino]-2-fluoro-3-pyridyl]methanone]
turbidity threshold (L, M, H) 1.4 [1]: H (high solubility if the threshold concentration is >250 μm) | turbidity threshold (L, M, H) 4.5 [1]: L (low solubility if the threshold concentration is <31.3 μM) | turbidity threshold (L, M, H) 6.8 [1]: L (low solubility if the threshold concentration is <31.3 μM) | turbidity threshold (L, M, H) 7.4 [1]: L (low solubility if the threshold concentration is <31.3 μM) | IC50 (CYP3A4(BFC)): > 10 µM

CCCNc1ncnc2[nH]cc(C(=O)c3ccc(Nc4cncc(OC)c4)nc3F)c12 [Compound P-4105, [2-fluoro-6-[(5-methoxy-3-pyridyl)amino]-3-pyridyl]-[4-(propylamino)-7H-pyrrolo[2,3-d]pyrimidin-5-yl]methanone]
turbidity threshold (L, M, H) 1.4 [1]: M (moderate solubility if the threshold concentration is 31.3 μM to 250 μM) | turbidity threshold (L, M, H) 4.5 [1]: M (moderate solubility if the threshold concentration is 31.3 μM to 250 μM) | turbidity threshold (L, M, H) 6.8 [1]: M (moderate solubility if the threshold concentration is 31.3 μM to 250 μM) | turbidity threshold (L, M, H) 7.4 [1]: M (moderate solubility if the threshold concentration is 31.3 μM to 250 μM) | IC50 (CYP3A4(BFC)): > 10 µM

Fc1nc(NC2CCC(F)(F)CC2)ccc1Cc1c[nH]c2ncc(Cl)cc12 [Compound P-3013, [5-(5-Chloro-1H-pyrrolo[2,3-b]pyridin-3-ylmethyl)-6-fluoro-pyridin-2-yl]-(4,4-difluoro-cyclohexyl)-amine]
turbidity threshold (L, M, H) 1.4 [1]: L (low solubility if the threshold concentration is <31.3 μM) | turbidity threshold (L, M, H) 4.5 [1]: L (low solubility if the threshold concentration is <31.3 μM) | turbidity threshold (L, M, H) 6.8 [1]: L (low solubility if the threshold concentration is <31.3 μM) | turbidity threshold (L, M, H) 7.4 [1]: L (low solubility if the threshold concentration is <31.3 μM) | IC50 (CYP3A4(BFC)): > 10 µM

COc1cncc(Nc2ccc(C(=O)c3c[nH]c4ncnc(NC(C)C)c34)c(F)n2)c1 [Compound P-4106, [2-fluoro-6-[(5-methoxy-3-pyridyl)amino]-3-pyridyl]-[4-(isopropylamino)-7H-pyrrolo[2,3-d]pyrimidin-5-yl]methanone]
turbidity threshold (L, M, H) 1.4 [1]: M (moderate solubility if the threshold concentration is 31.3 μM to 250 μM) | turbidity threshold (L, M, H) 4.5 [1]: M (moderate solubility if the threshold concentration is 31.3 μM to 250 μM) | turbidity threshold (L, M, H) 6.8 [1]: L (low solubility if the threshold concentration is <31.3 μM) | turbidity threshold (L, M, H) 7.4 [1]: M (moderate solubility if the threshold concentration is 31.3 μM to 250 μM) | IC50 (CYP3A4(BFC)): > 10 µM

COc1cncc(Nc2ccc(C(=O)c3c[nH]c4ncnc(NC5CC5)c34)c(F)n2)c1 [Compound P-4107, [4-(cyclopropylamino)-7H-pyrrolo[2,3-d]pyrimidin-5-yl]-[2-fluoro-6-[(5-methoxy-3-pyridyl)amino]-3-pyridyl]methanone]
turbidity threshold (L, M, H) 1.4 [1]: M (moderate solubility if the threshold concentration is 31.3 μM to 250 μM) | turbidity threshold (L, M, H) 4.5 [1]: M (moderate solubility if the threshold concentration is 31.3 μM to 250 μM) | turbidity threshold (L, M, H) 6.8 [1]: M (moderate solubility if the threshold concentration is 31.3 μM to 250 μM) | turbidity threshold (L, M, H) 7.4 [1]: M (moderate solubility if the threshold concentration is 31.3 μM to 250 μM) | IC50 (CYP3A4(BFC)): > 10 µM

CC(C)Nc1ncnc2[nH]cc(C(=O)c3ccc(NC4CCCCC4)nc3Cl)c12 [Compound P-4109, [2-chloro-6-(cyclohexylamino)-3-pyridyl]-[4-(isopropylamino)-7H-pyrrolo[2,3-d]pyrimidin-5-yl]methanone]
turbidity threshold (L, M, H) 1.4 [1]: L (low solubility if the threshold concentration is <31.3 μM) | turbidity threshold (L, M, H) 4.5 [1]: L (low solubility if the threshold concentration is <31.3 μM) | turbidity threshold (L, M, H) 6.8 [1]: L (low solubility if the threshold concentration is <31.3 μM) | turbidity threshold (L, M, H) 7.4 [1]: L (low solubility if the threshold concentration is <31.3 μM) | IC50 (CYP3A4(BFC)): > 10 µM

O=C(c1ccc(NC2CCC(F)(F)CC2)nc1F)c1c[nH]c2ncnc(NC3CC3)c12 [Compound P-4062, [4-(cyclopropylamino)-7H-pyrrolo[2,3-d]pyrimidin-5-yl]-[6-[(4,4-difluorocyclohexyl)amino]-2-fluoro-3-pyridyl]methanone]
turbidity threshold (L, M, H) 1.4 [1]: H (high solubility if the threshold concentration is >250 μm) | turbidity threshold (L, M, H) 4.5 [1]: L (low solubility if the threshold concentration is <31.3 μM) | turbidity threshold (L, M, H) 6.8 [1]: M (moderate solubility if the threshold concentration is 31.3 μM to 250 μM) | turbidity threshold (L, M, H) 7.4 [1]: L (low solubility if the threshold concentration is <31.3 μM) | IC50 (CYP3A4(BFC)): > 10 µM

Cc1cnc2[nH]cc(Cc3cnc(Nc4ccc(F)cc4)nc3)c2c1 [Compound P-3010, (4-Fluoro-phenyl)-[5-(5-methyl-1H-pyrrolo[2,3-b]pyridin-3-ylmethyl)-pyrimidin-2-yl]-amine]
turbidity threshold (L, M, H) 1.4 [1]: H (high solubility if the threshold concentration is >250 μm) | turbidity threshold (L, M, H) 4.5 [1]: L (low solubility if the threshold concentration is <31.3 μM) | turbidity threshold (L, M, H) 6.8 [1]: L (low solubility if the threshold concentration is <31.3 μM) | turbidity threshold (L, M, H) 7.4 [1]: M (moderate solubility if the threshold concentration is 31.3 μM to 250 μM) | IC50 (CYP3A4(BFC)): > 10 µM

CNc1ncnc2[nH]cc(C(=O)c3ccc(NC4CCC(F)(F)CC4)nc3)c12 [Compound P-4089, [6-[(4,4-difluorocyclohexyl)amino]-3-pyridyl]-[4-(methylamino)-7H-pyrrolo[2,3-d]pyrimidin-5-yl]methanone]
turbidity threshold (L, M, H) 1.4 [1]: H (high solubility if the threshold concentration is >250 μm) | turbidity threshold (L, M, H) 4.5 [1]: M (moderate solubility if the threshold concentration is 31.3 μM to 250 μM) | turbidity threshold (L, M, H) 6.8 [1]: M (moderate solubility if the threshold concentration is 31.3 μM to 250 μM) | turbidity threshold (L, M, H) 7.4 [1]: M (moderate solubility if the threshold concentration is 31.3 μM to 250 μM) | IC50 (CYP3A4(BFC)): > 10 µM

CCNc1ncnc2[nH]cc(C(=O)c3ccc(Nc4ccc(CC)nc4)nc3F)c12 [Compound P-4123, [4-(ethylamino)-7H-pyrrolo[2,3-d]pyrimidin-5-yl]-[6-[(6-ethyl-3-pyridyl)amino]-2-fluoro-3-pyridyl]methanone]
turbidity threshold (L, M, H) 1.4 [1]: H (high solubility if the threshold concentration is >250 μm) | turbidity threshold (L, M, H) 4.5 [1]: L (low solubility if the threshold concentration is <31.3 μM) | turbidity threshold (L, M, H) 6.8 [1]: L (low solubility if the threshold concentration is <31.3 μM) | turbidity threshold (L, M, H) 7.4 [1]: L (low solubility if the threshold concentration is <31.3 μM) | IC50 (CYP3A4(BFC)): > 10 µM

CCC(CC)Nc1ncnc2[nH]cc(C(=O)c3ccc(Nc4ccc(OC)nc4)nc3F)c12 [Compound P-4077, [4-(1-ethylpropylamino)-7H-pyrrolo[2,3-d]pyrimidin-5-yl]-[2-fluoro-6-[(6-methoxy-3-pyridyl)amino]-3-pyridyl]methanone]
turbidity threshold (L, M, H) 1.4 [1]: M (moderate solubility if the threshold concentration is 31.3 μM to 250 μM) | turbidity threshold (L, M, H) 4.5 [1]: L (low solubility if the threshold concentration is <31.3 μM) | turbidity threshold (L, M, H) 6.8 [1]: L (low solubility if the threshold concentration is <31.3 μM) | turbidity threshold (L, M, H) 7.4 [1]: L (low solubility if the threshold concentration is <31.3 μM) | IC50 (CYP3A4(BFC)): > 10 µM

CCc1ccc(Nc2ccc(C(=O)c3c[nH]c4ncnc(N[C@@H](C)c5ccc(F)cc5)c34)c(F)n2)cn1 [Compound P-4097, [6-[(6-ethyl-3-pyridyl)amino]-2-fluoro-3-pyridyl]-[4-[[(1S)-1-(4-fluorophenyl)ethyl]amino]-7H-pyrrolo[2,3-d]pyrimidin-5-yl]methanone]
turbidity threshold (L, M, H) 1.4 [1]: M (moderate solubility if the threshold concentration is 31.3 μM to 250 μM) | turbidity threshold (L, M, H) 4.5 [1]: L (low solubility if the threshold concentration is <31.3 μM) | turbidity threshold (L, M, H) 6.8 [1]: L (low solubility if the threshold concentration is <31.3 μM) | turbidity threshold (L, M, H) 7.4 [1]: L (low solubility if the threshold concentration is <31.3 μM) | IC50 (CYP3A4(BFC)): > 10 µM

CCC(C)Nc1ncnc2[nH]cc(C(=O)c3ccc(Nc4ccc(OC)nc4)nc3F)c12 (centres unmarked) [Compound P-4078, [2-fluoro-6-[(6-methoxy-3-pyridyl)amino]-3-pyridyl]-[4-(sec-butylamino)-7H-pyrrolo[2,3-d]pyrimidin-5-yl]methanone]
turbidity threshold (L, M, H) 1.4 [1]: M (moderate solubility if the threshold concentration is 31.3 μM to 250 μM) | turbidity threshold (L, M, H) 4.5 [1]: L (low solubility if the threshold concentration is <31.3 μM) | turbidity threshold (L, M, H) 6.8 [1]: L (low solubility if the threshold concentration is <31.3 μM) | turbidity threshold (L, M, H) 7.4 [1]: L (low solubility if the threshold concentration is <31.3 μM) | IC50 (CYP3A4(BFC)): > 10 µM
